In patent US20100056623A1, “FUMAGILLOL DERIVATIVES OR METHOD FOR PREPARATION OF FUMAGILLOL DERIVATIVES, AND PHARMACEUTICAL COMPOSITIONS COMPRISING THE SAME” (CHONG KUN DANG PHARMACEUTICAL CORP., priority 2005, published 2010):
Where two headings read alike, the source gives them in different places.

Legend:
[1] = test system: CPAE (calf pulmonary artery endothelial cell); experiment: Inhibiting activity on cell proliferation, SRB analysis (CPAE); format: cell-based; conditions: for IC50: CPAE cells, 3 days with drug, SRB, read-out: IC50 (nM) CAPE; for Selectivity Index (L5178Y/CAPE): IC50 L5178Y / IC50 CPAE
Procedure: (§1) In order to compare the safety index (SI) of CPAE (calf pulmonary artery endothelial cell) with that of HUVEC (human umbilical vein endothelial cell), L5178Y lymphoma that was isolated from murine thymus was used. The safety index was defined as IC50 ratio of L5178Y against CPAE (IC50L5178Y/IC50CPAE). All cell lines, which had been kept in liquid nitrogen tank, were used after being thawed and subcultured 2˜3 times in T-flask. CPAE, HUVEC and L5178Y were cultured in MEM culture medium (20% FBS, 50˜100 μg/ml ECGS, 0.15% baking soda, 0.05 mg/ml gentamicin), M199 culture medium (20% FBS, 0.22% baking soda, 100 μg/ml heparin, 3 ng/ml bFGF, 0.05 mg/ml gentamicin) and RPMI 1640 culture medium (10% FBS, 0.2% baking soda, 0.05 mg/ml gentamicin), respectively, under the condition of 37° C. and 5% CO2.
(§2) The drug was prepared by being gradationally diluted to two or ten times by using PBS, 20 μl of the solution was added to each well of 96 well plate in triplicate. The cell, which is being incubated, was treated with trypsin to give cell suspension. The number of cell thereafter was counted. And 180 μl of the solution was inoculated to each well and cultured.
(§3) The cell was cultured with drugs for 3 days and then 50 μl of 50% TCA was added thereto (final concentration 10%). Subsequently the cell was fixed by being left alone at 4° C. for 1 hour. The well was washed 4 times by distilled water and then dried. After that 100 μl of SRB (Sulforhodamine B, Sigma Chemical Co.) solution (0.4% w/v in 1% acetic acid) was added thereto and then it was left alone at ordinary temperature for 30 minutes. Thereafter the well was washed 4 times by 1% acetic acid and dried. And then after adding 200 μl of 10 mM tris buffer, the absorbance at 570 nm was measured by automatic microplate reader (Model: Elx 808, Bio-Tek Instrument, INC). The viability was calculated from the ratio of the absorbance of the control to which drugs were not added and the well to which drugs were added.

[2] = test system: HUVEC (human umbilical vein endothelial cell); experiment: Inhibiting activity on cell proliferation, SRB analysis (HUVEC); format: cell-based; conditions: Homo sapiens, 72 h, HUVEC cells, 3 days with drug
Procedure: as §1, §2, §3

L5178Y lymphoma = experiment: Inhibiting activity on cell proliferation, MTT analysis (L5178Y); format: cell-based, murine; conditions: L5178Y lymphoma cells, 3 days with drug
Procedure: as §1, §2
The tumor cell was cultured with drugs for 3 days and then 50 μl of MTT (3-(4,5-dimethylthiazole-2-yl)-2,5-diphenyl tetrazolium bromide, Sigma Chemical Co.) solution (2.5 mg/ml in PBS) was added thereto. And it was further cultured for 4 hours at 37° C. Culture medium was removed carefully. And after dissolving formazan crystal by adding 150 μl of DMSO, the absorbance at 570 nm was determined.

Solubility test = format: physicochemical; conditions: ordinary temperature
Procedure: To a constant amount (400 mg) of each compounds of present invention, a constant amount of demineralized water, methanol and ethanol were added separately, and the solution was stirred at ordinary temperature.

[3] = Chemical stability test (HPLC purity); conditions: for change of purity (in words) / chemical stability compared to known compounds / 1 month Other peaks (%) / 1 month Parent peak (%): 1 month at 40±2° C.; for change of purity (in words) / chemical stability compared to known compounds / 1 month Other peaks (%) / 1 month Parent peak (%) / change of purity (%): 75±5% relative humidity; for 1 month Other peaks (%) / 1 month Parent peak (%) / Initial Other peaks (%) / Initial Parent peak (%): HPLC; for 1 month Other peaks (%) / 1 month Parent peak (%): air-tight vessel; for change of purity (%): initial vs 1 month at 40±2° C.
Procedure: Each compound of the present invention was kept in an air-tight vessel for 1 month at 40±2° C. and 75±5% of relative humidity. Thereafter the HPLC purity test was executed.
25 mL of the solution was precisely taken, and poured into 100 mL volumetric flask. Acetonitrile/20 mM ammonium acetate aqueous solution (50:50) was added thereto to be the total volume of 100 ml. The solution was filtrated, and the filtrate was used as a test liquid.
(2) Operational Condition of Instrument. • Column: Kromasil®C18 (UG 100 Å, 5 μm, 4.6 mm Φ×250 mm) • Column temperature: 30° C. • Mobil phase: 20 mM ammonium acetate (pH 4.2) buffer:acetonitrile (55:45) • Injection volume: 20 μL • Flow rate: 1.2 mL/min • Detector: UV light-absorption Spectrophotometer (detection wavelength: 306 nm)

[4] = Bos taurus, Endothelial cell, 72 h

| SMILES | IC50 (L5178Y lymphoma; Mus musculus, 72 h) | IC50 [1, 4] | Selectivity Index (L5178Y/CAPE) [1] | IC50 [2] | effect compared to CKD-731 against CPAE ([1]; relative to CKD-731) | The amount of solvent to dissolve 1 g of the compounds (ml), demineralized water (Solubility test) | The amount of solvent to dissolve 1 g of the compounds (ml), ethanol (Solubility test) | The amount of solvent to dissolve 1 g of the compounds (ml), methanol (Solubility test) | change of purity (in words) [3] | chemical stability compared to known compounds [3] | 1 month Other peaks (%) [3] | 1 month Parent peak (%) [3] | Initial Other peaks (%) [3] | Initial Parent peak (%) [3] | change of purity (%) [3] | IC50 [1] | IC50 (L5178Y lymphoma) |
| --- | --- | --- | --- | --- | --- | --- | --- | --- | --- | --- | --- | --- | --- | --- | --- | --- | --- |
| CO[C@@H]1[C@H](OC(=O)/C=C/c2ccc(OCCCCCCO)c(C(F)(F)F)c2)CC[C@]2(CO2)[C@H]1[C@@]1(C)O[C@@H]1CC=C(C)C [Example 26, O-(3-trifluoromethyl-4-(6-hydroxyhexyloxy)cinnamoyl)fumagillol] | 9990 nM | 0.677 nM | 1.48 × 10^4 | 0.0019 nM | – | – | – | – | – | – | – | – | – | – | – | – | – |
| CO[C@@H]1[C@H](OC(=O)/C=C/c2ccc(NCCOCCO)cc2)CC[C@]2(CO2)[C@H]1[C@@]1(C)O[C@@H]1CC=C(C)C [Example 16, O-(4-(2-hydroxyethoxyethylamino)cinnamoyl)fumagillol] | 9490 nM | 0.041 nM | 2.31 × 10^5 | 0.0022 nM | – | – | – | – | – | – | – | – | – | – | – | – | – |
| COc1cc(/C=C/C(=O)O[C@@H]2CC[C@]3(CO3)[C@@H]([C@@]3(C)O[C@@H]3CC=C(C)C)[C@@H]2OC)ccc1OCCOCCO [Example 14, O-(4-(2-hydroxyethoxyethoxy)-3-methoxycinnamoyl)fumagillol] | 50100 nM | 0.26 nM | 1.93 × 10^5 | – | – | – | – | – | – | – | – | – | – | – | – | – | – |
| CO[C@@H]1[C@H](OC(=O)/C=C/c2ccc(OCCCCO)c(C)c2)CC[C@]2(CO2)[C@H]1[C@@]1(C)O[C@@H]1CC=C(C)C [Example 22, O-(3-methyl-4-(4-hydroxybutoxy)cinnamoyl)fumagillol] | 32500 nM | 0.048 nM | 6.76 × 10^5 | – | – | – | – | – | – | – | – | – | – | – | – | – | – |
| CO[C@@H]1[C@H](OC(=O)/C=C/c2ccc(OCCO)cc2)CC[C@]2(CO2)[C@H]1[C@@]1(C)O[C@@H]1CC=C(C)C [Example 1, O-(4-(2-hydroxyethoxy)cinnamoyl)fumagillol] | 15500 nM | 0.0025 nM | 6.22 × 10^6 | – | equivalent or not smaller than twice effect of CKD-731 | 135 mL | 55 mL | 34 mL | hardly showed a change of purity | more excellent chemical stability than TNP-470, CKD-732 and CKD-731 | 0.6% | 99.4% | 0.6% | 99.4% | 0% | – | – |
| COc1cc(C=CC(=O)OC2CCC3(CO3)C(C3(C)OC3CC=C(C)C)C2OC)cc(OC)c1OC (stereo not drawn) [CKD-731, O-(3,4,5-trimethoxycinnamoyl)fumagillol, reference compound] | – | – | – | – | – | 1567 mL | 372 mL | 350 mL | – | – | 2.9% | 97.1% | 1.1% | 98.9% | 1.8% | 0.0044 nM | 58200 nM |
| CO[C@@H]1[C@H](OC(=O)/C=C/c2ccc(OCCOCCO)cc2)CC[C@]2(CO2)[C@H]1[C@@]1(C)O[C@@H]1CC=C(C)C [Example 12, O-(4-(2-hydroxyethoxyethoxy)cinnamoyl)fumagillol] | 20500 nM | 0.019 nM | 1.08 × 10^6 | – | – | 126 mL | 51 mL | 35 mL | hardly showed a change of purity | more excellent chemical stability than TNP-470, CKD-732 and CKD-731 | 0.6% | 99.4% | 0.5% | 99.5% | 0.1% | – | – |
| CO[C@@H]1[C@H](OC(=O)/C=C/c2ccc(OCCCCO)cc2)CC[C@]2(CO2)[C@H]1[C@@]1(C)O[C@@H]1CC=C(C)C [Example 21, O-(4-(4-hydroxybutoxy)cinnamoyl)fumagillol] | 25800 nM | 0.029 nM | 8.90 × 10^5 | – | – | 150 mL | 97 mL | 70 mL | hardly showed a change of purity | more excellent chemical stability than TNP-470, CKD-732 and CKD-731 | 1.1% | 98.9% | 1.0% | 99.0% | 0.1% | – | – |
| CO[C@@H]1[C@H](OC(=O)/C=C/c2ccc(OCCCO)c(C#N)c2)CC[C@]2(CO2)[C@H]1[C@@]1(C)O[C@@H]1CC=C(C)C [Example 20, O-(3-cyano-4-(3-hydroxypropoxy)cinnamoyl)fumagillol] | 20500 nM | 0.046 nM | 4.45 × 10^5 | – | – | – | – | – | – | – | – | – | – | – | – | – | – |

More lines, main results first:

| IC50 (L5178Y lymphoma; Mus musculus, 72 h) | SMILES | IC50 [1, 4] | Selectivity Index (L5178Y/CAPE) [1] | IC50 [2] | effect compared to CKD-731 against CPAE ([1]; relative to CKD-731) | The amount of solvent to dissolve 1 g of the compounds (ml), demineralized water (Solubility test) | The amount of solvent to dissolve 1 g of the compounds (ml), ethanol (Solubility test) | The amount of solvent to dissolve 1 g of the compounds (ml), methanol (Solubility test) | change of purity (in words) [3] | chemical stability compared to known compounds [3] | 1 month Other peaks (%) [3] | 1 month Parent peak (%) [3] | Initial Other peaks (%) [3] | Initial Parent peak (%) [3] | change of purity (%) [3] | IC50 [1] | IC50 (L5178Y lymphoma) |
| --- | --- | --- | --- | --- | --- | --- | --- | --- | --- | --- | --- | --- | --- | --- | --- | --- | --- |
| 75000 nM | COc1ccc(/C=C/C(=O)O[C@@H]2CC[C@]3(CO3)[C@@H]([C@@]3(C)O[C@@H]3CC=C(C)C)[C@@H]2OC)cc1Oc1ccc(CO)cc1 [Example 11, O-(3-(4-hydroxymethylphenoxy)-4-methoxycinnamoyl)fumagillol] | 0.655 nM | 1.15 × 10^5 | 0.0036 nM | – | – | – | – | – | – | – | – | – | – | – | – | – |
| 41900 nM | COc1ccc(/C=C/C(=O)O[C@@H]2CC[C@]3(CO3)[C@@H]([C@@]3(C)O[C@@H]3CC=C(C)C)[C@@H]2OC)cc1OCCOCCO [Example 15, O-(3-(2-hydroxyethoxyethoxy)-4-methoxycinnamoyl)fumagillol] | 0.4 nM | 1.05 × 10^5 | – | – | – | – | – | – | – | – | – | – | – | – | – | – |
| 34600 nM | COc1cc(/C=C/C(=O)O[C@@H]2CC[C@]3(CO3)[C@@H]([C@@]3(C)O[C@@H]3CC=C(C)C)[C@@H]2OC)cc(OC)c1OCCOCCO [Example 13, O-(3,5-dimethoxy-4-(2-hydroxyethoxyethoxy)cinnamoyl)fumagillol] | 0.17 nM | 2.03 × 10^5 | – | – | – | – | – | – | – | – | – | – | – | – | – | – |
| 42500 nM | COc1cc(/C=C/C(=O)O[C@@H]2CC[C@]3(CO3)[C@@H]([C@@]3(C)O[C@@H]3CC=C(C)C)[C@@H]2OC)ccc1Oc1ccc(CO)cc1 [Example 10, O-(4-(4-hydroxymethylphenoxy)-3-methoxycinnamoyl)fumagillol] | 0.711 nM | 6.00 × 10^4 | – | – | – | – | – | – | – | – | – | – | – | – | – | – |
| 24900 nM | CO[C@@H]1[C@H](OC(=O)/C=C/c2ccc(OCCCO)cc2)CC[C@]2(CO2)[C@H]1[C@@]1(C)O[C@@H]1CC=C(C)C [Example 19, O-(4-(3-hydroxypropoxy)cinnamoyl)fumagillol] | 0.017 nM | 1.46 × 10^6 | – | – | – | – | – | – | – | – | – | – | – | – | – | – |
| 10500 nM | CO[C@@H]1[C@H](OC(=O)/C=C/c2ccc(OCCOCCOCCO)cc2)CC[C@]2(CO2)[C@H]1[C@@]1(C)O[C@@H]1CC=C(C)C [Example 27, O-(4-(2-hydroxyethoxyethoxyethoxy)cinnamoyl)fumagillol] | 0.089 nM | 1.18 × 10^5 | – | – | 120 mL | 50 mL | 30 mL | hardly showed a change of purity | more excellent chemical stability than TNP-470, CKD-732 and CKD-731 | 1.6% | 98.4% | 1.6% | 98.4% | 0% | – | – |
